Source: PMC12689914, “Identification of a novel dual-targeting peptide inhibitor of SARS-CoV-2 RBD and NRP1 through structure-based virtual screening” (Frontiers in Pharmacology, 2025)
Non-standard residues stand in square brackets, D forms with d. Residues, ends and D or L forms follow the SMILES beside them. No end group written: not given here. *: point of attachment. Biotin = O=C1N[C@H]2[C@H](CS[C@H]2CCCCC(=O)*)N1; βAla = NCCC(=O)O

Assays:
NRP1 = biological target: T1, NRP1 (Homo sapiens, UniProt O14786); experiment: MST binding affinity to NRP1
T1 construct: purchased Abcam
Protocol: (§1) MST assay was used to analyze the binding ability of peptides 1–5 to RBD and NRP1. Specifically, RBD and NRP1 proteins were labeled using a lysine (Lys) labeling kit, respectively, and their final concentrations were adjusted to 50 nM. The peptides were serially diluted in a 1:1 gradient starting from an initial concentration of 12.5 μM. Subsequently, the labeled proteins were mixed with the diluted peptides in 100 mM potassium phosphate buffer (pH 7.0). After incubation at room temperature for 5 min, the mixture was loaded into standard MST glass capillaries. Detection was performed using a Monolith NT.115 instrument with the MST power set to 50% and the LED power set to 20%. The experiment was independently repeated three times.

SARS-CoV-2 RBD = experiment: MST binding affinity to RBD; conditions: for Kd: MST, 50 nM labeled protein, 100 mM potassium phosphate buffer pH 7.0
Protocol: as §1

hERG channel = biological target: T2, hERG channel (Homo sapiens, UniProt Q12809); experiment: Predictor hERG fluorescence polarization assay; format: binding; conditions: for IC50 at 4 h: human, Predictor hERG Membrane (Invitrogen kit)
T2 construct: purchased Invitrogen
Protocol: This study was conducted using the Predictor hERG Fluorescence Polarization Assay Kit purchased from Invitrogen. The kit comprises Predictor hERG Tracer Red, Predictor hERG Membrane, Predictor hERG FP Assay Buffer, and E-4031 as the positive control. The Predictor hERG Tracer Red was diluted to prepare a 4 nM tracer working solution, while the stock solution of E-4031 was diluted to a 120 μM E-4031 working solution. Subsequently, serial dilutions of E-4031 were prepared to serve as the reference compound. Test peptides were subjected to gradient dilution to generate solutions with 6 concentration gradients. For the assay procedure, buffer or compound solution was first added to the assay plate, followed by the addition of membrane and the tracer. After incubating the assay plate at 25 °C for 4 h, fluorescence polarization (FP) values (mp values) were measured using an EnVision microplate reader (PerkinElmer) equipped with a set of polarized filters. The half-maximal inhibitory concentration (IC50) of active compounds was determined using GraphPad Prism software.

A549 cells = experiment: MTT cytotoxicity assay; format: cell-based, human; conditions: 100 μM, 48 h
Protocol: A549 cells ([…], catalog number: PCS-300-010) were purchased from the American Type Culture Collection (ATCC, Manassas, VA, United States). The cells were cultured in Airway Epithelial Cell Basal Medium (ATCC, catalog number: PCS-300-030) supplemented with Bronchial/Tracheal Epithelial Cell Growth Kit (ATCC, catalog number: PCS-300-040) and incubated in a 37 °C incubator with 5% CO2. Then, cells were seeded into 96-well plates at a density of 5 × 10^4 cells per well and incubated overnight at 37 °C with 5% CO2. Subsequently, cells were treated with 100 μM peptides 1–5 for 48 h. After treatment, MTT stock solution (0.5 mg/mL) was added to each well, followed by additional 4-h incubation. Finally, the absorbance signal was measured at 570 nm using a microplate reader.

[1] = test system: live SARS-CoV-2 Omicron XBB.1.5 strain; parameters: species or system K18-hACE2 mice; conditions: mouse, in vivo
[2] = test system: SARS-CoV-2 Omicron XBB.1.5 pseudovirus; conditions: 3.2 µM
[3] = mice, 1 and 5 mg/kg intranasal

T2 sequence (Q12809 whole entry): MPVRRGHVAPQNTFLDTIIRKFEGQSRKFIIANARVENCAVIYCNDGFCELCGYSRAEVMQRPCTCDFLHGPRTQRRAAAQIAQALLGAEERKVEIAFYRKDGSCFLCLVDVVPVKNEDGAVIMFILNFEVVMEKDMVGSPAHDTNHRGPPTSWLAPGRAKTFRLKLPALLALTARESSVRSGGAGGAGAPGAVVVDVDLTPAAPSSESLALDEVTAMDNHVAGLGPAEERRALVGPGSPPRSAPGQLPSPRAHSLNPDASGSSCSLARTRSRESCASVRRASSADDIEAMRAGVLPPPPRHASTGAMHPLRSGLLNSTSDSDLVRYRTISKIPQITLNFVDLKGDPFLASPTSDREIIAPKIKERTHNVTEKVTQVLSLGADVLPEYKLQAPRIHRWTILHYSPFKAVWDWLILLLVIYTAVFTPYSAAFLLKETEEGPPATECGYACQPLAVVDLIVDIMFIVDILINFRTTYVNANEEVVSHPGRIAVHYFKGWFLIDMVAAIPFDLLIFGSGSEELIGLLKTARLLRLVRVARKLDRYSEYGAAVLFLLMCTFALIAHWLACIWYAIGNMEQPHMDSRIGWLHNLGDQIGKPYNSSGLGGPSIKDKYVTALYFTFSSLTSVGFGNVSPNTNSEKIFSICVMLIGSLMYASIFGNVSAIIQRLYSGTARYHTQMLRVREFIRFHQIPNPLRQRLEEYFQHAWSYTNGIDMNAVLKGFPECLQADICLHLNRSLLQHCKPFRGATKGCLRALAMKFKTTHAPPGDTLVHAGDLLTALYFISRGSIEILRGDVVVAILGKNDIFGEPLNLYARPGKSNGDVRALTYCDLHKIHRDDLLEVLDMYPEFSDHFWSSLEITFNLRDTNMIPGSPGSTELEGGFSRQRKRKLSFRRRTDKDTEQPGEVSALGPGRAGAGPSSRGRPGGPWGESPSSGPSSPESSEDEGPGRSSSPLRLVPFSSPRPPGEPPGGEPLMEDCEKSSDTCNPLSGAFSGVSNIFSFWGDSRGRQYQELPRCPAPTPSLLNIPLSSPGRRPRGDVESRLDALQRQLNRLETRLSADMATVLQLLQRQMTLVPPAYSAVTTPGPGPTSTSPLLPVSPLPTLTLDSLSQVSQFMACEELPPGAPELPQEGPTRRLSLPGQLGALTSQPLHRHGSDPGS
T1 sequence (O14786 22-923): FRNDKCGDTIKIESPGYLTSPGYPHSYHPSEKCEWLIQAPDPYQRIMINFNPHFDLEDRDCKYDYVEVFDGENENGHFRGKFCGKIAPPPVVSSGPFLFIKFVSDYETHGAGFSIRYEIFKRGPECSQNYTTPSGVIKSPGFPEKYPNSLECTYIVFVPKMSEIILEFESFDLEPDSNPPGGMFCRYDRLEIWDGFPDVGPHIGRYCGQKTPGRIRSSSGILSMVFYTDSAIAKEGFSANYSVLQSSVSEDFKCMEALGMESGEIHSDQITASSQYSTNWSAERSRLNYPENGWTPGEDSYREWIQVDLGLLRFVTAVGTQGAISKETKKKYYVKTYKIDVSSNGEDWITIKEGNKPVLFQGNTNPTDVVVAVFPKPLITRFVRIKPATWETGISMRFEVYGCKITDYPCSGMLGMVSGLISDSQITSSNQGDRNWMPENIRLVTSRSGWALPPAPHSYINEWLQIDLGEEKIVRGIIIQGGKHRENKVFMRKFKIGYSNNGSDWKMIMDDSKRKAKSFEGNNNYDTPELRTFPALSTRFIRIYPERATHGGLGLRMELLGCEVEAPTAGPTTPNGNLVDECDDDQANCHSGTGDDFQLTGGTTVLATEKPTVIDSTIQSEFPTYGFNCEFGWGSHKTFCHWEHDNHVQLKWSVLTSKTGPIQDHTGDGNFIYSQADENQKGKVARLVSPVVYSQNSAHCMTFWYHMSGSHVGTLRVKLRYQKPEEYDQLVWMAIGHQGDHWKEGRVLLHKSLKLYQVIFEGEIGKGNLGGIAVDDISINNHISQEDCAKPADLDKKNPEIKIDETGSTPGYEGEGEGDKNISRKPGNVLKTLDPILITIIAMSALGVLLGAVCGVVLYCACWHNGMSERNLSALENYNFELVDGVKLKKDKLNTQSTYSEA

With `N=C(N)NCCC[C@@H](N)C(=O)N1CCC[C@@H]1C(=O)N1CCC[C@@H]1C(=O)N[C@H](CCCNC(=N)N)C(=O)N[C@H](CCC(=O)O)C(=O)NCC(=O)N[C@H](CCCNC(=N)N)C(=O)O` [NTP, rppregr] (H-[dR][dP][dP][dR][dE]G[dR]-OH) the Kd (NRP1) was 0.141 µM.

With `CSCC[C@H](NC(=O)[C@@H](NC(=O)[C@@H](N)CC(C)C)C(C)C)C(=O)NCC(=O)N[C@@H](CC(C)C)C(=O)N[C@@H](CC(N)=O)C(=O)N[C@H](C(=O)N[C@@H](Cc1c[nH]c2ccccc12)C(=O)N[C@@H](CC(C)C)C(=O)N[C@@H](CCCNC(=N)N)C(=O)N[C@@H](Cc1ccc(O)cc1)C(=O)N[C@@H](CO)C(=O)N[C@@H](CCCCN)C(=O)NCCC(=O)N[C@@H](CCCCNC(=O)CCCC[C@@H]1SC[C@@H]2NC(=O)N[C@@H]21)C(N)=O)C(C)C` [PP-4] (H-LVMGLNVWLRYSK[βAla]K(Biotin)-NH2; N-terminus assumed) the Kd (SARS-CoV-2 RBD) was 0.079 µM and the “NRP1 (Kd)” value (NRP1; MST, 50 nM labeled protein, 100 mM potassium phosphate buffer pH 7.0) was “no binding affinity”.

In the case of `CC(C)C[C@H](NC(=O)[C@H](CCC(=O)O)NC(=O)[C@H](C)NC(=O)[C@@H](N)CCC(=O)O)C(=O)N[C@H](CC(=O)O)C(=O)N[C@H](C(=O)N[C@@H](CO)C(=O)N[C@@H](CC(=O)O)C(=O)N[C@@H](C)C(=O)N[C@@H](Cc1ccccc1)C(=O)N[C@@H](Cc1ccc(O)cc1)C(=O)N[C@@H](CCCNC(=N)N)C(=O)N[C@@H](Cc1ccccc1)C(=O)N[C@@H](Cc1ccccc1)C(=O)N[C@@H](CCCNC(=N)N)C(=O)N[C@@H](CCCNC(=N)N)C(=O)N[C@@H](C)C(=O)N[C@@H](CCCNC(=N)N)C(=O)O)C(C)C` [Peptide-1] (H-EAEL[dD]VSDAFYRFFRRAR-OH; N-terminus and C-terminus assumed), the Kd (SARS-CoV-2 RBD) is reported as 0.019 µM, the “fold higher affinity for RBD compared with the single-target peptide” value (SARS-CoV-2 RBD; versus PP-4) is reported as “approximately 4.2 fold” and the “fold higher affinity for NRP1 compared with the single-target peptide” value (NRP1; versus NTP) is reported as about 4.4 fold. The IC50 at 4 h (hERG channel) was over 50 µM, the “cytotoxicity to A549 cells” value (A549 cells) was “no obvious toxicity” and the “viral load in the lungs of mice vs control” value [1] was “significantly reduced”. The “inhibition rate against SARS-CoV-2 Omicron XBB.1.5 infection” value [2] was “approximately 80%”, the “alanine aminotransferase (ALT) level” value [3] was “did not change significantly” and the “aspartate aminotransferase (AST) level” value [3] was “did not change significantly”. For the same molecule, the “blood urea nitrogen (BUN) level” value [3] was “did not change significantly” and the “creatinine (CRE) level” value [3] was “did not change significantly”.

`CC(C)C[C@H](NC(=O)[C@H](C)NC(=O)[C@@H](NC(=O)[C@@H](N)CO)[C@@H](C)O)C(=O)N[C@H](CC(=O)O)C(=O)N[C@H](C(=O)N[C@@H](CO)C(=O)N[C@@H](CC(=O)O)C(=O)N[C@@H](C)C(=O)N[C@@H](Cc1ccccc1)C(=O)N[C@@H](Cc1ccc(O)cc1)C(=O)N[C@@H](CCCNC(=N)N)C(=O)N[C@@H](Cc1ccccc1)C(=O)N[C@@H](Cc1ccccc1)C(=O)N[C@@H](CCCNC(=N)N)C(=O)N[C@@H](CCCCN)C(=O)N[C@@H](C)C(=O)N[C@@H](CCCNC(=N)N)C(=O)O)C(C)C` [Peptide-2] (H-STAL[dD]VSDAFYRFFRKAR-OH; N-terminus and C-terminus assumed) gave a Kd (SARS-CoV-2 RBD) of 0.056 µM and an IC50 at 4 h (hERG channel) of over 50 µM.

In the case of `CC[C@H](C)[C@H](NC(=O)[C@@H](N)CC(N)=O)C(=O)N[C@@H](CCC(=O)O)C(=O)N[C@@H](CC(C)C)C(=O)N[C@H](CC(=O)O)C(=O)N[C@@H](C)C(=O)N[C@@H](CO)C(=O)N[C@@H](CC(=O)O)C(=O)N[C@@H](C)C(=O)N[C@@H](Cc1ccccc1)C(=O)N[C@H](C(=O)N[C@@H](CCCNC(=N)N)C(=O)N[C@@H](Cc1ccccc1)C(=O)N[C@@H](Cc1ccccc1)C(=O)N[C@@H](CCCNC(=N)N)C(=O)N[C@@H](CCC(N)=O)C(=O)N[C@@H](C)C(=O)N[C@@H](CCCNC(=N)N)C(=O)O)C(C)C` [Peptide-4] (H-NIEL[dD]ASDAFVRFFRQAR-OH; N-terminus and C-terminus assumed), the Kd (SARS-CoV-2 RBD) is reported as 0.069 µM and the IC50 at 4 h (hERG channel) is reported as over 50 µM.

Molecule `CC[C@H](C)[C@H](NC(=O)[C@H](CCC(=O)O)NC(=O)[C@H](CS)NC(=O)[C@H](C)N)C(=O)N[C@H](CC(=O)O)C(=O)N[C@H](C(=O)N[C@@H](CO)C(=O)N[C@@H](CC(=O)O)C(=O)N[C@@H](C)C(=O)N[C@@H](Cc1ccccc1)C(=O)N[C@@H](CCCCN)C(=O)N[C@@H](CCCNC(=N)N)C(=O)N[C@@H](Cc1ccccc1)C(=O)N[C@@H](Cc1ccccc1)C(=O)N[C@@H](CCCNC(=N)N)C(=O)N[C@@H](C)C(=O)N[C@@H](C)C(=O)N[C@@H](CCCNC(=N)N)C(=O)O)C(C)C` [Peptide-5] (H-ACEI[dD]VSDAFKRFFRAAR-OH; N-terminus and C-terminus assumed) has a Kd (SARS-CoV-2 RBD) of 0.043 µM and an IC50 at 4 h (hERG channel) of over 50 µM.

ELELVVSTAFYRFFRHAR [Peptide-3] gave a Kd (NRP1) of 0.081 µM and an IC50 (hERG channel) of over 50 µM.
